The target in the assay is T1, 2-Hydroxyacid oxidase 1 (Homo sapiens, UniProt Q9UJM8).
T1 sequence (Q9UJM8 whole entry): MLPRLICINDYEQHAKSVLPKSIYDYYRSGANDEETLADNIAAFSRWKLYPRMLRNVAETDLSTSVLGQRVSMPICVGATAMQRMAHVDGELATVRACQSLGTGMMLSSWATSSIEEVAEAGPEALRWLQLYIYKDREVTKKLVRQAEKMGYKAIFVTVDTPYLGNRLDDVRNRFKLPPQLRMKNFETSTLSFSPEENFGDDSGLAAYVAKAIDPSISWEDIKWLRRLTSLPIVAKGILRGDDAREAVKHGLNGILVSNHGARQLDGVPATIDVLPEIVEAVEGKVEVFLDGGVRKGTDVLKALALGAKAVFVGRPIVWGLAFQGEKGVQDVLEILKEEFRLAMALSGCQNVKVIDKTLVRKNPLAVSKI
The experiment in a line: In-Vitro Human Glycolate Oxidase (hGOX) Assay: The in-vitro glycolate oxidase assay was performed using recombinant full-length human hydroxyacid oxidase 1 (HAO1), the equivalents of hGOX. The enzyme was obtained from AbCam (Catalog #ab113144) and was purified using conventional chromatography to >95% purity. Purified HAO1 was dissolved in assay buffer consisting of 10 mM NaCl, 110 mM KCl, 2 mM MgCl2, 50 mM HEPES (pH 7.4), and 0.01% Triton™ X-100. The assay used Corning 3575 384-well flat bottom, low flange, non-binding surface, black polystyrene plates.Test compounds in DMSO were preincubated at different concentrations with purified recombinant human GO (6 nM) for 10 min, followed by the addition of glycolate substrate (85 μM) to start the reaction. The plates were incubated for 10 min at room temperature, at which point Amplex red reagent (50 μM) was added.The fluorescence intensity signal was measured on a VariosKan LUX instrument using an excitation of 560 nm and an emission of 590 nm. The IC50 values were calculated using Graphpad Prism.

Turning to `CC(C)CC#Cc1cccc(S(=O)(=O)c2[nH]nnc2C(=O)O)c1`, the IC50 (commonly the point on the concentration scale where inhibition reaches its midpoint) is 4.7 µM.

Source of the values: ChEMBL document CHEMBL5729440, “Compounds and methods for treating oxalate-related diseases” (2022).
